Laboratory results as given in BindingDB's records for patent US12128028 (Metrion Biosciences, 2024).
pIC50: −log10 of the molar value.

target: Potassium voltage-gated channel subfamily A member 3 (Homo sapiens, UniProt P22001); assay: Biological Assay
Protocol: The QPatch HT system (Sophion Bioscience A/S, Denmark) was used with the conventional whole-cell configuration. This system is an automated, chip-based planar patch clamp device allowing for up to 48 parallel independent experiments in one experimental assay run. Cells are added to each well and drawn by suction onto a small aperture to obtain a Gigaohm seal between the cell membrane and treated silicon surface, and whole-cell recordings initiated after access is achieved by suction and/or voltage pulses. The QPatch HT uses static perfusion, whereby a small volume of recording solution or drug is added to a reservoir on the chip and the solution perfuses across the cell through quartz-lined microfluidic channels; this solution is removed by capillary action when the next sample application is made.CHO-Kv1.3 cells were prepared for experiments by dissociation from T175 cell culture flasks using trypsin-EDTA (0.05%), cells were kept in serum free media in the cell hotel on board the QPatch HT. These cells were sampled, washed and re-suspended in extracellular recording solution by the QPatch HT immediately before application to the recording well site on the chip. Experiments were performed using the following solutions; extracellular solution contained (in mM); 150 NaCl, 10 KCl, 1 MgCl2, 3 CaCl2), 10 Glucose and 10 HEPES (pH 7.4, NaOH) and intracellular solution contained (in mM); 20 KCl, 120 KF, 10 HEPES, 10 EGTA, 5 ATP (pH 7.2, KOH).The potency (Inhibitory Concentration 50%, IC50) of synthesized compounds against Kv1.3 was determined from concentration-response relationships established by cumulatively applying four escalating concentrations of test compound to an individual cell and a minimum of N≥3 individual cells of data per compound were used to generate the IC50 value.

Potassium voltage-gated channel subfamily A member 3, sequence (P22001 whole entry, the tested form may be a part): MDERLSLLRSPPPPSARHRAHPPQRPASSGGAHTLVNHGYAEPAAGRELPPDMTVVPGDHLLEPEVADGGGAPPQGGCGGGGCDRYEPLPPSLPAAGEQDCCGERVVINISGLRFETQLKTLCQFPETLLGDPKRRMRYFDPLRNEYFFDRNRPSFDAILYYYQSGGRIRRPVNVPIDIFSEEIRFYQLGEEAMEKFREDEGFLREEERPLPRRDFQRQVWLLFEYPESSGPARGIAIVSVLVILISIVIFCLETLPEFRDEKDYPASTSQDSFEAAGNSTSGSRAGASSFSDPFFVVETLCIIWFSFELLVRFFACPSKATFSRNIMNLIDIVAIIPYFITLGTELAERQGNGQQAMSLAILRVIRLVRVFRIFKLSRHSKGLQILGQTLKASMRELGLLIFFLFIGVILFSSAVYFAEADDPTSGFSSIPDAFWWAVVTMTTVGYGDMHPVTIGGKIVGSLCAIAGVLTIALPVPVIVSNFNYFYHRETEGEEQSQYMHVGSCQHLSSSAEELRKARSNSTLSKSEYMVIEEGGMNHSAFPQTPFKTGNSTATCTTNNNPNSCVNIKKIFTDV

| pIC50 | SMILES |
| --- | --- |
| 6.44 | CC[C@H]1N=C(C23CC(N(Cc4ccc(C(F)(F)F)cc4)S(=O)(=O)c4ccc(F)cc4)(C2)C3)N[C@@]1(C)C(=O)NCCC(F)(F)F (racemic) [US12128028, Example 259] |
| 6.67 | CC[C@@H]1N=C(C23CC(N(Cc4ccc(C(F)(F)F)cc4)S(=O)(=O)c4ccc(F)cc4)(C2)C3)N[C@@]1(C)C(=O)NCCC(F)(F)F (racemic) [US12128028, Example 235] |
| 6.99 | CC1(C)N=C(C23CC(N(Cc4ccc(Cl)c(F)c4)S(=O)(=O)c4ccccc4)(C2)C3)N[C@H]1C(=O)N1CCC[C@H](C(F)(F)F)C1 (racemic) [US12128028, Example 173] |
